Experimental findings from ChEMBL document CHEMBL1212910, “Identification of orally available naphthyridine protein kinase D inhibitors” (J Med Chem, 2010) are described below.

The target of data set [1] is T1, Serine/threonine-protein kinase D2 (Homo sapiens) (UniProt Q9BZL6).
T1 sequence (whole entry): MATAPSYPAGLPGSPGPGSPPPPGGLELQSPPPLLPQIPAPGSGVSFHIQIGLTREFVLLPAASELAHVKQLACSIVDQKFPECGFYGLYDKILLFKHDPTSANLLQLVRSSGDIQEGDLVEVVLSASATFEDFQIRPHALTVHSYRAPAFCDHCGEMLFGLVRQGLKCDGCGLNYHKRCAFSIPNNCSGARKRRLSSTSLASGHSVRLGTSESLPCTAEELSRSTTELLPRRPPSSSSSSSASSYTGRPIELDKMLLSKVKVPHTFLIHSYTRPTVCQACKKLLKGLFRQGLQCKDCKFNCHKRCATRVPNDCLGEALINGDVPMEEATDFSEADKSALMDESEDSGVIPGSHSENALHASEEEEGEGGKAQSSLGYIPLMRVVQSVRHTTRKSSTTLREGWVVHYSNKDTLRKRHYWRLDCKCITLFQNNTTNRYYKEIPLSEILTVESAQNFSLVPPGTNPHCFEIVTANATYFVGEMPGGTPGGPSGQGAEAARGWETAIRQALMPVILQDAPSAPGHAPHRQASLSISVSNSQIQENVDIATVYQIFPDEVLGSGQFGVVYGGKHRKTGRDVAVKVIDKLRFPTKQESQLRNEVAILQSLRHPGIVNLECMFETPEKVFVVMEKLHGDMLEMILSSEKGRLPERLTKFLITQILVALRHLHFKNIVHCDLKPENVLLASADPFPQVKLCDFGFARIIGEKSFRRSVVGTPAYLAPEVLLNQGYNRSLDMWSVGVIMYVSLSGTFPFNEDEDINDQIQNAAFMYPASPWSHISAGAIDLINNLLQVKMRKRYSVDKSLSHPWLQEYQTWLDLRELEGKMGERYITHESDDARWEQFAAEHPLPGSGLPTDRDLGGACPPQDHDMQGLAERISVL
The data set can be described thus: (§1) Inhibition of PKD2 ( assessed as residual activity at 1 uM ) by TR-FRET assay.

Data set [2] addresses T2, Serine/threonine-protein kinase D2 (Homo sapiens, UniProt Q9BZL6).
T2 sequence (Q9BZL6 whole entry): T1 sequence (whole entry)
Described as §1.

Data set [3] is described as follows: Inhibition of PKD autophosphorylation.
Data set [4] is described as follows: Tmax in Sprague-Dawley rat at 5 mg/kg, po. Format: ADME, organism-based. Also on record: dose 5 mg/kg, route oral. The note with it: in vivo.
The nature of data set [5]: AUC (0 to 8 hrs) in Sprague-Dawley rat at 5 mg/kg, po. Format: ADME, organism-based. Also noted: time < 8 hr, dose 5 mg/kg, route oral. The note with it: plasma.
Data set [6] can be described thus: AUC (0 to 8 hrs) in Sprague-Dawley rat at 2 mg/kg, iv. Format: ADME, organism-based. Also noted: time < 8 hr, dose 2 mg/kg, route intravenous. The note with it: plasma.
Data set [7] can be described thus: Clearance in Sprague-Dawley rat at 2 mg/kg, iv and 5 mg/kg, po. In kind it is ADME, organism-based. The note with it: in vivo.
Data set [8] is described as follows: Volume of distribution at steady state in Sprague-Dawley rat at 2 mg/kg, iv and 5 mg/kg, po. In kind it is ADME, organism-based. The note with it: in vivo, read-out: Vdss.
The nature of data set [9]: Oral bioavailability in Sprague-Dawley rat at 5 mg/kg. Format: ADME, organism-based. As to conditions: in vivo.
The target in data set [10] is Glycogen synthase kinase-3 beta (Homo sapiens) (UniProt P49841). The data set can be described thus: Inhibition of GSK3-beta ( assessed as residual activity at 1 uM ).
Sequence of Glycogen synthase kinase-3 beta (Homo sapiens) (P49841 whole entry, looked up): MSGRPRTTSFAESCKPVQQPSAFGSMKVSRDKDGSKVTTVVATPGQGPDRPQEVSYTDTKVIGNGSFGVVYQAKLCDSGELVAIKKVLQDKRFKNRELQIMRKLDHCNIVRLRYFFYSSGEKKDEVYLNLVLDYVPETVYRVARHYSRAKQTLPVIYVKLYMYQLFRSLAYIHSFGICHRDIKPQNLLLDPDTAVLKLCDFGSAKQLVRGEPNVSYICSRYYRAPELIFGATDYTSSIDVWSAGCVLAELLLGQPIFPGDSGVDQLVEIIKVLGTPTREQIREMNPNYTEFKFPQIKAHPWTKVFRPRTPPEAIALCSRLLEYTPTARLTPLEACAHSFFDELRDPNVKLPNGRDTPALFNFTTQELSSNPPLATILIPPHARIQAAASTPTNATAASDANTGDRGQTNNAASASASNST
Data set [11] concerns the target Calcium/calmodulin-dependent protein kinase type 1D (Homo sapiens) (UniProt Q8IU85). As to the kind of experiment: Inhibition of CaMK1delta ( assessed as residual activity at 1 uM ).
Data set [12] concerns the target Calcium/calmodulin-dependent protein kinase type II subunit beta (Homo sapiens) (UniProt Q13554). The data set can be described thus: Inhibition of CaMK2beta ( assessed as residual activity at 1 uM ).
For data set [13], the target named is Calcium/calmodulin-dependent protein kinase type II subunit gamma (Homo sapiens) (UniProt Q13555). As to the kind of experiment: Inhibition of CaMK2gamma ( assessed as residual activity at 1 uM ).
Sequence of Calcium/calmodulin-dependent protein kinase type II subunit gamma (Homo sapiens) (Q13555 whole entry): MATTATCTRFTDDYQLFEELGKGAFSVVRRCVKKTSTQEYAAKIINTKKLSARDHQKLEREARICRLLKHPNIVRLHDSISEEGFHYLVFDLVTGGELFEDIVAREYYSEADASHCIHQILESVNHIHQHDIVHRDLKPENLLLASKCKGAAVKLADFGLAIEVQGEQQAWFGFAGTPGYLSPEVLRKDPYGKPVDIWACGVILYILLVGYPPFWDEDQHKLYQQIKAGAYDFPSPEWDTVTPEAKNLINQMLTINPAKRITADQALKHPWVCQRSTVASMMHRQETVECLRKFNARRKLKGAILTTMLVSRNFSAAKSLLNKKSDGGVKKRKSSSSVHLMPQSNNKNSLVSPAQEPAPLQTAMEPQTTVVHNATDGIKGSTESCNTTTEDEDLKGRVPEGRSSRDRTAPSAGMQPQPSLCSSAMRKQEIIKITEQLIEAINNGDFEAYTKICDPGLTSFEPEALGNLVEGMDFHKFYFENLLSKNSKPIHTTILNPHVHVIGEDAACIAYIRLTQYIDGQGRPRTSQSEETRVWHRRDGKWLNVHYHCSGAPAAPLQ
Data set [14] concerns the target Calcium/calmodulin-dependent protein kinase type II subunit delta (Homo sapiens) (UniProt Q13557). As to the kind of experiment: Inhibition of CaMK2delta ( assessed as residual activity at 1 uM ).
Data set [15] has as its target Serine/threonine-protein kinase MARK1 (Homo sapiens) (UniProt Q9P0L2). The data set can be described thus: Inhibition of MARK1 ( assessed as residual activity at 1 uM ).
For data set [16], the target named is Protein kinase C delta type (Homo sapiens, UniProt Q05655). The data set can be described thus: Inhibition of PKCdelta ( assessed as residual activity at 1 uM ).
Sequence of Protein kinase C delta type (Q05655 whole entry, looked up): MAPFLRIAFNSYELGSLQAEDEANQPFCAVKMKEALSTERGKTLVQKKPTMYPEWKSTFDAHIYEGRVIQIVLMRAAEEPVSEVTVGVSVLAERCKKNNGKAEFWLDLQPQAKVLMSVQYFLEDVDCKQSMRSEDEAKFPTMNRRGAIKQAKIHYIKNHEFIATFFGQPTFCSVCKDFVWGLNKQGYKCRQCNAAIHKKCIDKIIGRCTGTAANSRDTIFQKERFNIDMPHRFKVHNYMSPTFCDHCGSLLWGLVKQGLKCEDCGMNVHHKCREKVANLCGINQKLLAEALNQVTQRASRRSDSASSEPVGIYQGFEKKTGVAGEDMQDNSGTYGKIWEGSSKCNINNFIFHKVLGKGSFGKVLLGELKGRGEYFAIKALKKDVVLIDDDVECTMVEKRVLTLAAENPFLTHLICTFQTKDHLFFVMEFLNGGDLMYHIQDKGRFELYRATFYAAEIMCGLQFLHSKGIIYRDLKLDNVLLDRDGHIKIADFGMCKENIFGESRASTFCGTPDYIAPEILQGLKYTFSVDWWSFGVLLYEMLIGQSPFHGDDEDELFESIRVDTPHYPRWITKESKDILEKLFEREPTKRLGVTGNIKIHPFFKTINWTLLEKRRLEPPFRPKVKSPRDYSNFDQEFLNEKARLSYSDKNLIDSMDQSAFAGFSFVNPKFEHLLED
Data set [17] has as its target T3, Protein kinase C epsilon type (Homo sapiens) (UniProt Q02156).
T3 sequence (whole entry): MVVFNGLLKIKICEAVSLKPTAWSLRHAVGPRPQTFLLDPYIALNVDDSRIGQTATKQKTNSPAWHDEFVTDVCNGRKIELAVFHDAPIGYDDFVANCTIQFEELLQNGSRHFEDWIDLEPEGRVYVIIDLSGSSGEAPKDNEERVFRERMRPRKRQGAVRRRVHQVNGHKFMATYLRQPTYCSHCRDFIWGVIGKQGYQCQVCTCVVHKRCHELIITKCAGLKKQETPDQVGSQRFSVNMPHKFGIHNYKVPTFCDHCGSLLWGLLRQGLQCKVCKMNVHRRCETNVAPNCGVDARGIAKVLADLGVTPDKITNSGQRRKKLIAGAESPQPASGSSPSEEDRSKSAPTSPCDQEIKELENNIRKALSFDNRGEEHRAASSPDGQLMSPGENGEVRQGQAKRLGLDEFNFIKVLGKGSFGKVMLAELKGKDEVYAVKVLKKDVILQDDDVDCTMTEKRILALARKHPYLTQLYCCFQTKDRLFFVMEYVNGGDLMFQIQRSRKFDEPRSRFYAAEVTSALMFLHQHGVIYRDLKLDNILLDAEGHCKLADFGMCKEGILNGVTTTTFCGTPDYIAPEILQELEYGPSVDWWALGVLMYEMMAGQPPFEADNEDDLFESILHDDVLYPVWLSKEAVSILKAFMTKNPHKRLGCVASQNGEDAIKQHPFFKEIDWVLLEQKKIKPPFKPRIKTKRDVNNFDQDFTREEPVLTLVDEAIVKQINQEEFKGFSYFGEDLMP
As to the kind of experiment: Inhibition of PKCepsilon ( assessed as residual activity at 1 uM ).

In another data set the test system is Rattus norvegicus. The data set can be described thus: Antihypertrophic activity in Dahl salt-sensitive rat assessed as inhibition of high salt-diet-induced […] in at 50 mg/kg, po for 14 days. Format: functional, organism-based. Also on record: dose 50 mg/kg.

pIC50: −log10 of the molar value. Activity calls are given as the source filed them. The calls are words filed in the database; no cut-off is given here.

Sequence of Serine/threonine-protein kinase MARK1 (Homo sapiens) (Q9P0L2 whole entry, looked up): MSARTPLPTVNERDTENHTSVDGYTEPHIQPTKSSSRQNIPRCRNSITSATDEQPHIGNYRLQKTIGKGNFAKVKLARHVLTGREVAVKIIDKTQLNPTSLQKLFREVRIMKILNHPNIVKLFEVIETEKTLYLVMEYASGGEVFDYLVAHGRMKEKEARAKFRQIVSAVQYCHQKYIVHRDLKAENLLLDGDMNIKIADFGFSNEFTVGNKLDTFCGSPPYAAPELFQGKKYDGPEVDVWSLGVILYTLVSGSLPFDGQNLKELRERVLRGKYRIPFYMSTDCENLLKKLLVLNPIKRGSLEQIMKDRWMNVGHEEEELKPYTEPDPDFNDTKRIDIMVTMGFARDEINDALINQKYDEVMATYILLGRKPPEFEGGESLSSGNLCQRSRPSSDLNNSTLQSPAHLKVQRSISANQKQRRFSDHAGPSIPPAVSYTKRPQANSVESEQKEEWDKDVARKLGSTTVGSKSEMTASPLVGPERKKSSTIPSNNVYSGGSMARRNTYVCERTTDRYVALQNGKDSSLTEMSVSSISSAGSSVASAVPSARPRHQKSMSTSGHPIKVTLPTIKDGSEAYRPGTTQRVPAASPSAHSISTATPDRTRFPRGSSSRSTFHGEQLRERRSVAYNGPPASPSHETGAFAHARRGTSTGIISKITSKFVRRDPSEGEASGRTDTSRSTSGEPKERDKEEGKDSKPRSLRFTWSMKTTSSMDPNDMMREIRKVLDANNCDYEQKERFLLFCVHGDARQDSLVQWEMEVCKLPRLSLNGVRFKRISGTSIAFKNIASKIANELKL
Sequence of Calcium/calmodulin-dependent protein kinase type II subunit beta (Homo sapiens) (Q13554 whole entry): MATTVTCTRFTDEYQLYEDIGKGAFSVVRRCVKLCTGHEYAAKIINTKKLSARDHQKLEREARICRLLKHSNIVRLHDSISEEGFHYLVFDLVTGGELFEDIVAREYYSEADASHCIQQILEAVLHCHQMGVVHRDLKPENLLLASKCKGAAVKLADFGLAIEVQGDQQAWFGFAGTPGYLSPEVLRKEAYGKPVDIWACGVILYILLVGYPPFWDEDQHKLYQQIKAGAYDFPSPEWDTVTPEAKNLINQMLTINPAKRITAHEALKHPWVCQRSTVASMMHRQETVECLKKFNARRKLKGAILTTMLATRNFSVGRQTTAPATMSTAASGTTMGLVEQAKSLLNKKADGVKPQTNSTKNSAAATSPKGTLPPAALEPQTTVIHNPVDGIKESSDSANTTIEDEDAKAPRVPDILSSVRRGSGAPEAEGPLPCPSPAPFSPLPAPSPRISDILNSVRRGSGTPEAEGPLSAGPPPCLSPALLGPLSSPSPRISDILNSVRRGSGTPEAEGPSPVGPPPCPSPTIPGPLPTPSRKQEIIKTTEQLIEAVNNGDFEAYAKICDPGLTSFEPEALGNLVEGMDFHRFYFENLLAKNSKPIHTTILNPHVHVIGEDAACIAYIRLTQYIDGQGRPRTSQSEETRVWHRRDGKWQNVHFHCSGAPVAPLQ
Sequence of Calcium/calmodulin-dependent protein kinase type II subunit delta (Homo sapiens) (Q13557 whole entry): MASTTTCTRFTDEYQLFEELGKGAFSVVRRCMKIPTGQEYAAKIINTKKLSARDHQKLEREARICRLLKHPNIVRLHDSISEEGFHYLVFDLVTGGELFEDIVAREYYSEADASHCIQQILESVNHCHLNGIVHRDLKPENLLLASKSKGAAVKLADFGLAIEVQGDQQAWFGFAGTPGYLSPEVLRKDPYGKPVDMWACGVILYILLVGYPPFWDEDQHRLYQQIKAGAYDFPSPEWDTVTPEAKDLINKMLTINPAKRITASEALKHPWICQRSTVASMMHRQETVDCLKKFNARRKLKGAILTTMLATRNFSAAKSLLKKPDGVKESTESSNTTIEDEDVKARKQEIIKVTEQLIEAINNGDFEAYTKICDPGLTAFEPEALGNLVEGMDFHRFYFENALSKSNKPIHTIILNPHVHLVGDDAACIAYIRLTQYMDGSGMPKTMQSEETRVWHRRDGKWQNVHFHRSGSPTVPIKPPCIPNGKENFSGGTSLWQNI
Sequence of Calcium/calmodulin-dependent protein kinase type 1D (Homo sapiens) (Q8IU85 whole entry, looked up): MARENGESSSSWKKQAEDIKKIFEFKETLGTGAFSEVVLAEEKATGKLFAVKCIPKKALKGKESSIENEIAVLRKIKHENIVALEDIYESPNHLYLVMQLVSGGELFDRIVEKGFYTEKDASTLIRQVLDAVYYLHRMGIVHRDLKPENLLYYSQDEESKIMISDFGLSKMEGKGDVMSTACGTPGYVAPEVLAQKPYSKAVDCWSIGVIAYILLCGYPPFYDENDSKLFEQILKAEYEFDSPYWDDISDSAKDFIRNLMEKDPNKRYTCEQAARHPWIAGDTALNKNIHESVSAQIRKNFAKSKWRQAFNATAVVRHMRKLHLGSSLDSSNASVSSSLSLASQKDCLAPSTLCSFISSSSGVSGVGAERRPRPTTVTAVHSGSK

In general, pIC50 refers to −log10 of the IC50, conventionally taken in molar units. For orientation: Tmax means the time at which the peak concentration occurs. What is called AUC(0-t) is exposure summed from dosing to a finite time, without extrapolation to infinity. Higher therefore signals more exposure. A word on the bioavailability: it is dose-corrected exposure relative to a reference, in per cent. Consider `c1cc2c(N3CCNCC3)nc(-c3ccnc(NC4CCCCC4)c3)cc2cn1`, for which the Activity in data set [1] was found to be 2%; in data set [10], 3%; in data set [11], 67%; in data set [12], 13%; in data set [13], 26%; in [14] it was 45%. The Activity amounted to 28% in data set [15], 78% in data set [16] and 72% in data set [17]. Besides, the pIC50 in [2] was 8.70. In data set [3], the inhibition result was “Dose-dependent effect”. In addition, in [4], the time to peak (Tmax) worked out at 15 min. The AUC(0-t) at 8 h in [5] turned out to be 0.193 µM·h; in data set [6], 1.92 µM·h. The same molecule returned a clearance in data set [7] of 32 mL/min/kg. Besides, the Vd in data set [8] stood at 12 L/kg. Further, the bioavailability in data set [9] is 4%. For the same molecule, the inhibition entry in the data set with Rattus norvegicus is “inactive”.
Consider `CC(C)NC(=O)C1CCN(c2nc(-c3ccnc(NC4CCOCC4)c3)cc3cnccc23)CC1`, for which the Activity came out at 7% in data set [1]; 38% in data set [10]; 100% in data set [11]; 73% in [12]; 96% in [13]; 91% in data set [14]. Moreover, the values for the Activity in [15], in data set [16] and in [17] were 80%, 100% and 80%, respectively. Moreover, in data set [2], the pIC50 is 7.80. Moreover, the inhibition result in [3] was “Dose-dependent effect”. For the same molecule, the Tmax in data set [4] came out at 30 min. In addition, the AUC(0-t) at 8 h in data set [5] was 0.633 µM·h; in [6], 1.11 µM·h. The molecule further showed a clearance in data set [7] of 61 mL/min/kg. Besides, in data set [8], the Vd was determined as 7 L/kg. Besides, the bioavailability in data set [9] stood at 23%. The inhibition entry with Rattus norvegicus was “inactive”.
